Common to all, as to assay type: functional
Assay [1] concerns ATRA-resistant NB4-LR2. The assay is described as follows: Cell cycle arrest in human ATRA-resistant NB4-LR2 cells assessed as accumulation of cells at G2/M phase at higher concentration by DAPI staining based flow cytometric analysis. A general note: Flow cytometry measures light scatter and fluorescence of single cells or particles in a stream.
Assay [2] is described as follows: Cell cycle arrest in human ATRA-resistant NB4-LR2 cells assessed as accumulation of cells at G2/M phase at 2 uM incubated for 24 hrs by DAPI staining based flow cytometric analysis (reference value: 25 %).
In assay [3] the test system is NB-4. The assay is described as follows: Cell cycle arrest in human NB4 cells assessed as accumulation of cells at G0/G1 phase at 0.5 uM incubated for 24 hrs by DAPI staining based flow cytometric analysis (reference value: 48 %).
In assay [4] the test system is NB-4. The assay is described as follows: Cell cycle arrest in human NB4 cells assessed as accumulation of cells at sub-G1 phase at 2 uM incubated for 12 hrs by DAPI staining based flow cytometric analysis (reference value: 3 %).
Assay [5] is described as follows: Cell cycle arrest in human ATRA-resistant NB4-LR2 cells assessed as accumulation of cells at G0/G1 phase at 1 uM incubated for 12 hrs by DAPI staining based flow cytometric analysis (reference value: 42 %).
The subject of assay [6] is NB-4. The assay is described as follows: Cell cycle arrest in human NB4 cells transfected with pLVX-shPML-RARalpha plasmid assessed as accumulation of cells at G0/G1 phase at 2 uM incubated for 12 hrs by DAPI staining based flow cytometric analysis (reference value: 38 %).
The test system of assay [7] is NB-4. The assay is described as follows: Cell cycle arrest in human NB4 cells assessed as accumulation of cells at G0/G1 phase at 2 uM incubated for 3 hrs by DAPI staining based flow cytometric analysis (reference value: 56 %).
Assay [8] is described as follows: Cell cycle arrest in human ATRA-resistant NB4-LR2 cells assessed as accumulation of cells at G2/M phase at 2 uM incubated for 6 hrs by DAPI staining based flow cytometric analysis (reference value: 15 %).
Assay [9] relates to NB-4. The assay is described as follows: Cell cycle arrest in human NB4 cells assessed as accumulation of cells at G0/G1 phase at 2 uM incubated for 24 hrs by DAPI staining based flow cytometric analysis (reference value: 48 %).
In assay [10] the test system is NB-4. The assay is described as follows: Cell cycle arrest in human NB4 cells transfected with pLVX-shRNA2-negative control assessed as accumulation of cells at S phase at 1 uM incubated for 12 hrs by DAPI staining based flow cytometric analysis (reference value: 26 %).
Assay [11] deals with NB-4. The assay is described as follows: Cell cycle arrest in human NB4 cells transfected with pLVX-shRXRalpha plasmid assessed as accumulation of cells at sub-G1 phase at 2 uM incubated for 12 hrs by DAPI staining based flow cytometric analysis (reference value: 10 %).
Assay [12] in a line: Cell cycle arrest in human ATRA-resistant NB4-LR2 cells assessed as accumulation of cells at S phase at 2 uM incubated for 6 hrs by DAPI staining based flow cytometric analysis (reference value: 19 %).
Assay [13] can be described thus: Cell cycle arrest in human ATRA-resistant NB4-LR2 cells assessed as accumulation of cells at G0/G1 phase at 2 uM incubated for 3 hrs by DAPI staining based flow cytometric analysis (reference value: 57 %).
The test system of assay [14] is NB-4. The assay is described as follows: Cell cycle arrest in human NB4 cells transfected with pLVX-shRXRalpha plasmid assessed as accumulation of cells at G0/G1 phase at 2 uM incubated for 12 hrs by DAPI staining based flow cytometric analysis (reference value: 53 %).
Assay [15] has as its system NB-4. The assay is described as follows: Cell cycle arrest in human NB4 cells transfected with pLVX-shPML-RARalpha plasmid assessed as accumulation of cells at G2/M phase at 1 uM incubated for 12 hrs by DAPI staining based flow cytometric analysis (reference value: 22 %).
The nature of assay [16]: Cell cycle arrest in human ATRA-resistant NB4-LR2 cells assessed as accumulation of cells at sub-G1 phase at 1 uM incubated for 24 hrs by DAPI staining based flow cytometric analysis (reference value: 12 %).
Assay [17] relates to NB-4. The assay is described as follows: Cell cycle arrest in human NB4 cells assessed as accumulation of cells at G2/M phase at 2 uM incubated for 3 hrs by DAPI staining based flow cytometric analysis (reference value: 21 %).
Assay [18] deals with NB-4. The assay is described as follows: Cell cycle arrest in human NB4 cells assessed as accumulation of cells at G2/M phase at 1 uM incubated for 24 hrs by DAPI staining based flow cytometric analysis (reference value: 23 %).
The nature of assay [19]: Induction of apoptosis in human ATRA-resistant NB4-LR2 cells assessed as early apoptotic cells at 1 uM incubated for 24 hrs by Annexin V-FITC/PI staining based flow cytometric analysis (reference value: 1.41 %).
The nature of assay [20]: Cell cycle arrest in human ATRA-resistant NB4-LR2 cells assessed as accumulation of cells at S phase at 2 uM incubated for 24 hrs by DAPI staining based flow cytometric analysis (reference value: 21 %).
Assay [21] in a line: Induction of apoptosis in human ATRA-resistant NB4-LR2 cells assessed as late apoptotic cells at 1 uM incubated for 24 hrs by Annexin V-FITC/PI staining based flow cytometric analysis (reference value: 5.62 %).
Assay [22] can be described thus: Cell cycle arrest in human ATRA-resistant NB4-LR2 cells assessed as accumulation of cells at G2/M phase at 2 uM incubated for 3 hrs by DAPI staining based flow cytometric analysis (reference value: 15 %).
Assay [23] has as its system NB-4. The assay is described as follows: Cell cycle arrest in human NB4 cells transfected with pLVX-shRNA2-negative control assessed as accumulation of cells at S phase at 2 uM incubated for 12 hrs by DAPI staining based flow cytometric analysis (reference value: 26 %).
Assay [24] in a line: Cell cycle arrest in human ATRA-resistant NB4-LR2 cells assessed as accumulation of cells at G0/G1 phase at 1 uM incubated for 24 hrs by DAPI staining based flow cytometric analysis (reference value: 42 %).
Assay [25] relates to NB-4. The assay is described as follows: Cell cycle arrest in human NB4 cells transfected with pLVX-shRNA2-negative control assessed as accumulation of cells at sub-G1 phase at 2 uM incubated for 12 hrs by DAPI staining based flow cytometric analysis (reference value: 4 %).
The subject of assay [26] is NB-4. The assay is described as follows: Cell cycle arrest in human NB4 cells assessed as accumulation of cells at sub-G1 phase at 2 uM incubated for 6 hrs by DAPI staining based flow cytometric analysis (reference value: 3 %).
The subject of assay [27] is NB-4. The assay is described as follows: Cell cycle arrest in human NB4 cells assessed as accumulation of cells at sub-G1 phase at 2 uM incubated for 24 hrs by DAPI staining based flow cytometric analysis (reference value: 3 %).
Assay [28] relates to NB-4. The assay is described as follows: Cell cycle arrest in human NB4 cells transfected with pLVX-shRXRalpha plasmid assessed as accumulation of cells at G2/M phase at 2 uM incubated for 12 hrs by DAPI staining based flow cytometric analysis (reference value: 17 %).
The subject of assay [29] is NB-4. The assay is described as follows: Cell cycle arrest in human NB4 cells assessed as accumulation of cells at S phase at 2 uM incubated for 3 hrs by DAPI staining based flow cytometric analysis (reference value: 20 %).
Assay [30] relates to NB-4. The assay is described as follows: Cell cycle arrest in human NB4 cells assessed as accumulation of cells at G0/G1 phase at 2 uM incubated for 12 hrs by DAPI staining based flow cytometric analysis (reference value: 56 %).
Assay [31] deals with NB-4. The assay is described as follows: Cell cycle arrest in human NB4 cells transfected with pLVX-shPML-RARalpha plasmid assessed as accumulation of cells at G2/M phase at 2 uM incubated for 12 hrs by DAPI staining based flow cytometric analysis (reference value: 22 %).

The source made the active and inactive calls. No cut-off for these calls is given here.

For `Cc1cc2c(cc1C(=O)/C(Br)=C\c1ccc(C(=O)O)cc1)C(C)(C)CCC2(C)C`, in [1], the result was Active.
In the case of `Cc1cc2c(cc1C(=O)/C(Br)=C/c1ccc(C(=O)O)cc1)C(C)(C)CCC2(C)C`, the Activity was found to be 23% in [2]; 59% in assay [3]; 4% in assay [4]; 10% in assay [5]; 31% in assay [6]; 48% in [7]. For the same molecule, the Activity was 26% in [8]; 35% in assay [9]; 8% in assay [10]; 12% in [11]; 7% in assay [12]; 48% in [13]. Also, the Activity in assay [14] turned out to be 40%; in assay [15], 27%; in assay [16] it was 20%; in assay [17], 28%; in assay [18] it was 45%; in [19], 27.7%. In addition, the Activity in [20] is recorded as 22%; in [21], 20.28%; in assay [22], 33%; in assay [23] it was 18%; in assay [24] it was 32%; in assay [25] it was 7%. Besides, the Activity amounted to 3% in assay [26]; 9% in [27]; 26% in assay [28]; 21% in assay [29]; 11% in assay [30]; 20% in assay [31].

For the origin of these results see ChEMBL document CHEMBL6134780, “Halogenated retinoid derivatives as dual RARα and RXRα modulators for treating acute promyelocytic leukemia cells” (Eur J Med Chem, 2024).
